Experimental data reported in ChEMBL document CHEMBL4334508, “Oleanolic Acid Derivatives as Potential Inhibitors of HIV-1 Protease” (J Nat Prod, 2019).

These compounds were tested against Protease (Human immunodeficiency virus 1, UniProt Q9YQ12) (assay: Inhibition of HIV1 protease expressed in Escherichia coli using Abz-Ala-Arg-Val-Nle-Tyr(NO2)-Glu-Ala-Nle-NH2 peptide as substrate by FRET assay).
Protease, sequence (Q9YQ12 whole entry): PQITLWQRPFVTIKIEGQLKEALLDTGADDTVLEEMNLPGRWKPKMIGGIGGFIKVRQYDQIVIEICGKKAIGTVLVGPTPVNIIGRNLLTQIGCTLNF

SMILES | IC50 [µM]
CCCCCCCCCCCC(=O)O[C@H]1CC[C@]2(C)[C@H]3CC=C4[C@@H]5CC(C)(C)CC[C@]5(C(=O)NCCCCCCCCCCC(=O)NCC(=O)O)CC[C@@]4(C)[C@]3(C)CC[C@H]2C1(C)C | > 50
CC(=O)O[C@H]1CC[C@]2(C)[C@H]3CC=C4[C@@H]5CC(C)(C)CC[C@]5(C(=O)NCCCCCCCCCCC(=O)O)CC[C@@]4(C)[C@]3(C)CC[C@H]2C1(C)C | > 50
CC(C)[C@H](NC(=O)CCCNC(=O)[C@]12CCC(C)(C)C[C@H]1C1=CC[C@@H]3[C@@]4(C)CC[C@H](OC(=O)CC(C)(C)CC(=O)O)C(C)(C)[C@@H]4CC[C@@]3(C)[C@]1(C)CC2)C(=O)O | 46.3
CC(=O)O[C@H]1CC[C@]2(C)[C@H]3CC=C4[C@@H]5CC(C)(C)CC[C@]5(C(=O)NCCCCCCCCCCC(=O)N[C@H](C(=O)O)C(C)C)CC[C@@]4(C)[C@]3(C)CC[C@H]2C1(C)C | > 50
CC1(C)CC[C@]2(C(=O)NCCCCCCCCCCC(=O)O)CC[C@]3(C)C(=CC[C@@H]4[C@@]5(C)CC[C@H](OC(=O)c6ccccc6)C(C)(C)[C@@H]5CC[C@]43C)[C@@H]2C1 | > 50
CCCC(=O)O[C@H]1CC[C@]2(C)[C@H]3CC=C4[C@@H]5CC(C)(C)CC[C@]5(C(=O)NCCCC(=O)N[C@H](C(=O)O)C(C)C)CC[C@@]4(C)[C@]3(C)CC[C@H]2C1(C)C | > 50
C[C@H](NC(=O)CCCCCNC(=O)[C@]12CCC(C)(C)C[C@H]1C1=CC[C@@H]3[C@@]4(C)CC[C@H](OC(=O)CC(C)(C)CC(=O)O)C(C)(C)[C@@H]4CC[C@@]3(C)[C@]1(C)CC2)C(=O)O | 24.1
CCCCCC(=O)O[C@H]1CC[C@]2(C)[C@H]3CC=C4[C@@H]5CC(C)(C)CC[C@]5(C(=O)NCCCCCCCCCCC(=O)O)CC[C@@]4(C)[C@]3(C)CC[C@H]2C1(C)C | > 50
CCCC(=O)O[C@H]1CC[C@]2(C)[C@H]3CC=C4[C@@H]5CC(C)(C)CC[C@]5(C(=O)NCCCCCCCCCCC(=O)O)CC[C@@]4(C)[C@]3(C)CC[C@H]2C1(C)C | > 50
CC1(C)CC[C@]2(C(=O)NCCCCCCCCCCC(=O)NCC(=O)O)CC[C@]3(C)C(=CC[C@@H]4[C@@]5(C)CC[C@H](OC(=O)CCC(=O)O)C(C)(C)[C@@H]5CC[C@]43C)[C@@H]2C1 | > 50
CCC(=O)O[C@H]1CC[C@]2(C)[C@H]3CC=C4[C@@H]5CC(C)(C)CC[C@]5(C(=O)NCCCCCCCCCCC(=O)N[C@@H](C)C(=O)O)CC[C@@]4(C)[C@]3(C)CC[C@H]2C1(C)C | > 50
CCC(=O)O[C@H]1CC[C@]2(C)[C@H]3CC=C4[C@@H]5CC(C)(C)CC[C@]5(C(=O)NCCCCCCCCCCC(=O)N[C@H](C(=O)O)C(C)C)CC[C@@]4(C)[C@]3(C)CC[C@H]2C1(C)C | > 50
C[C@H](NC(=O)CCCNC(=O)[C@]12CCC(C)(C)C[C@H]1C1=CC[C@@H]3[C@@]4(C)CC[C@H](OC(=O)CC(C)(C)CC(=O)O)C(C)(C)[C@@H]4CC[C@@]3(C)[C@]1(C)CC2)C(=O)O | > 50
C[C@H](NC(=O)CCCCCNC(=O)[C@]12CCC(C)(C)C[C@H]1C1=CC[C@@H]3[C@@]4(C)CC[C@H](OC(=O)CCC(=O)O)C(C)(C)[C@@H]4CC[C@@]3(C)[C@]1(C)CC2)C(=O)O | 40.2
CCCCCCCCCCCC(=O)O[C@H]1CC[C@]2(C)[C@H]3CC=C4[C@@H]5CC(C)(C)CC[C@]5(C(=O)NCCCCCCCCCCC(=O)N[C@H](C(=O)O)C(C)C)CC[C@@]4(C)[C@]3(C)CC[C@H]2C1(C)C | > 50
CC(=O)O[C@H]1CC[C@]2(C)[C@H]3CC=C4[C@@H]5CC(C)(C)CC[C@]5(C(=O)NCCCC(=O)N[C@@H](C)C(=O)O)CC[C@@]4(C)[C@]3(C)CC[C@H]2C1(C)C | > 50

SMILES | IC50 [µM]
C[C@H](NC(=O)CCCCCNC(=O)[C@]12CCC(C)(C)C[C@H]1C1=CC[C@@H]3[C@@]4(C)CC[C@H](OC(=O)c5ccccc5)C(C)(C)[C@@H]4CC[C@@]3(C)[C@]1(C)CC2)C(=O)O | > 50
CCCC(=O)O[C@H]1CC[C@]2(C)[C@H]3CC=C4[C@@H]5CC(C)(C)CC[C@]5(C(=O)NCCCCCCCCCCC(=O)NCC(=O)O)CC[C@@]4(C)[C@]3(C)CC[C@H]2C1(C)C | > 50
C[C@H](NC(=O)CCCCCNC(=O)[C@]12CCC(C)(C)C[C@H]1C1=CC[C@@H]3[C@@]4(C)CC[C@H](OC(=O)CCCC(=O)O)C(C)(C)[C@@H]4CC[C@@]3(C)[C@]1(C)CC2)C(=O)O | 38.8
C[C@H](NC(=O)CCCNC(=O)[C@]12CCC(C)(C)C[C@H]1C1=CC[C@@H]3[C@@]4(C)CC[C@H](OC(=O)CCCC(=O)O)C(C)(C)[C@@H]4CC[C@@]3(C)[C@]1(C)CC2)C(=O)O | 6.6
CC1(C)CC[C@]2(C(=O)NCCCC(=O)O)CC[C@]3(C)C(=CC[C@@H]4[C@@]5(C)CC[C@H](OC(=O)c6ccccc6)C(C)(C)[C@@H]5CC[C@]43C)[C@@H]2C1 | > 50
CC1(C)CC[C@]2(C(=O)NCCCCCC(=O)O)CC[C@]3(C)C(=CC[C@@H]4[C@@]5(C)CC[C@H](OC(=O)c6ccccc6)C(C)(C)[C@@H]5CC[C@]43C)[C@@H]2C1 | > 50
CC(=O)O[C@H]1CC[C@]2(C)[C@H]3CC=C4[C@@H]5CC(C)(C)CC[C@]5(C(=O)NCCCCCCCCCCC(=O)NCC(=O)O)CC[C@@]4(C)[C@]3(C)CC[C@H]2C1(C)C | > 50
CC(C)[C@H](NC(=O)CCCCCNC(=O)[C@]12CCC(C)(C)C[C@H]1C1=CC[C@@H]3[C@@]4(C)CC[C@H](OC(=O)c5ccccc5C(=O)O)C(C)(C)[C@@H]4CC[C@@]3(C)[C@]1(C)CC2)C(=O)O | 0.59
CC1(C)CC[C@]2(C(=O)NCCCC(=O)NCC(=O)O)CC[C@]3(C)C(=CC[C@@H]4[C@@]5(C)CC[C@H](OC(=O)c6ccccc6C(=O)O)C(C)(C)[C@@H]5CC[C@]43C)[C@@H]2C1 | 2.2
CC(C)[C@H](NC(=O)CCCCCCCCCCNC(=O)[C@]12CCC(C)(C)C[C@H]1C1=CC[C@@H]3[C@@]4(C)CC[C@H](OC(=O)CCC(=O)O)C(C)(C)[C@@H]4CC[C@@]3(C)[C@]1(C)CC2)C(=O)O | > 50
CC(C)[C@H](NC(=O)CCCCCCCCCCNC(=O)[C@]12CCC(C)(C)C[C@H]1C1=CC[C@@H]3[C@@]4(C)CC[C@H](OC(=O)c5ccccc5)C(C)(C)[C@@H]4CC[C@@]3(C)[C@]1(C)CC2)C(=O)O | > 50
CCCC(=O)O[C@H]1CC[C@]2(C)[C@H]3CC=C4[C@@H]5CC(C)(C)CC[C@]5(C(=O)NCCCCCCCCCCC(=O)N[C@H](C(=O)O)C(C)C)CC[C@@]4(C)[C@]3(C)CC[C@H]2C1(C)C | > 50
CCCC(=O)O[C@H]1CC[C@]2(C)[C@H]3CC=C4[C@@H]5CC(C)(C)CC[C@]5(C(=O)NCCCCCC(=O)O)CC[C@@]4(C)[C@]3(C)CC[C@H]2C1(C)C | > 50
CC(=O)O[C@H]1CC[C@]2(C)[C@H]3CC=C4[C@@H]5CC(C)(C)CC[C@]5(C(=O)NCCCCCC(=O)N[C@H](C(=O)O)C(C)C)CC[C@@]4(C)[C@]3(C)CC[C@H]2C1(C)C | 30.3
CCCCCC(=O)O[C@H]1CC[C@]2(C)[C@H]3CC=C4[C@@H]5CC(C)(C)CC[C@]5(C(=O)NCCCCCCCCCCC(=O)N[C@@H](C)C(=O)O)CC[C@@]4(C)[C@]3(C)CC[C@H]2C1(C)C | > 50

The remaining lines, values ahead:

IC50 [µM] | SMILES
> 50 | CC1(C)CC[C@]2(C(=O)NCCCCCC(=O)NCC(=O)O)CC[C@]3(C)C(=CC[C@@H]4[C@@]5(C)CC[C@H](OC(=O)CCCC(=O)O)C(C)(C)[C@@H]5CC[C@]43C)[C@@H]2C1
> 50 | CCC(=O)O[C@H]1CC[C@]2(C)[C@H]3CC=C4[C@@H]5CC(C)(C)CC[C@]5(C(=O)NCCCCCC(=O)O)CC[C@@]4(C)[C@]3(C)CC[C@H]2C1(C)C
> 50 | CCC(=O)O[C@H]1CC[C@]2(C)[C@H]3CC=C4[C@@H]5CC(C)(C)CC[C@]5(C(=O)NCCCC(=O)N[C@@H](C)C(=O)O)CC[C@@]4(C)[C@]3(C)CC[C@H]2C1(C)C
> 50 | CC1(C)CC[C@]2(C(=O)NCCCC(=O)NCC(=O)O)CC[C@]3(C)C(=CC[C@@H]4[C@@]5(C)CC[C@H](OC(=O)CCC(=O)O)C(C)(C)[C@@H]5CC[C@]43C)[C@@H]2C1
> 50 | CCCC(=O)O[C@H]1CC[C@]2(C)[C@H]3CC=C4[C@@H]5CC(C)(C)CC[C@]5(C(=O)NCCCC(=O)NCC(=O)O)CC[C@@]4(C)[C@]3(C)CC[C@H]2C1(C)C
> 50 | CCC(=O)O[C@H]1CC[C@]2(C)[C@H]3CC=C4[C@@H]5CC(C)(C)CC[C@]5(C(=O)NCCCC(=O)NCC(=O)O)CC[C@@]4(C)[C@]3(C)CC[C@H]2C1(C)C
> 50 | CCC(=O)O[C@H]1CC[C@]2(C)[C@H]3CC=C4[C@@H]5CC(C)(C)CC[C@]5(C(=O)NCCCC(=O)O)CC[C@@]4(C)[C@]3(C)CC[C@H]2C1(C)C
> 50 | C[C@H](NC(=O)CCCNC(=O)[C@]12CCC(C)(C)C[C@H]1C1=CC[C@@H]3[C@@]4(C)CC[C@H](OC(=O)CCC(=O)O)C(C)(C)[C@@H]4CC[C@@]3(C)[C@]1(C)CC2)C(=O)O
> 50 | CC(C)(CC(=O)O)CC(=O)O[C@H]1CC[C@]2(C)[C@H]3CC=C4[C@@H]5CC(C)(C)CC[C@]5(C(=O)NCCCC(=O)NCC(=O)O)CC[C@@]4(C)[C@]3(C)CC[C@H]2C1(C)C
> 50 | CC(=O)O[C@H]1CC[C@]2(C)[C@H]3CC=C4[C@@H]5CC(C)(C)CC[C@]5(C(=O)NCCCC(=O)NCC(=O)O)CC[C@@]4(C)[C@]3(C)CC[C@H]2C1(C)C
31 | CCC(=O)O[C@H]1CC[C@]2(C)[C@H]3CC=C4[C@@H]5CC(C)(C)CC[C@]5(C(=O)NCCCCCC(=O)N[C@@H](C)C(=O)O)CC[C@@]4(C)[C@]3(C)CC[C@H]2C1(C)C
> 50 | CCCC(=O)O[C@H]1CC[C@]2(C)[C@H]3CC=C4[C@@H]5CC(C)(C)CC[C@]5(C(=O)NCCCCCC(=O)NCC(=O)O)CC[C@@]4(C)[C@]3(C)CC[C@H]2C1(C)C
32.6 | CC(=O)O[C@H]1CC[C@]2(C)[C@H]3CC=C4[C@@H]5CC(C)(C)CC[C@]5(C(=O)NCCCC(=O)O)CC[C@@]4(C)[C@]3(C)CC[C@H]2C1(C)C
> 50 | CCCC(=O)O[C@H]1CC[C@]2(C)[C@H]3CC=C4[C@@H]5CC(C)(C)CC[C@]5(C(=O)NCCCC(=O)N[C@@H](C)C(=O)O)CC[C@@]4(C)[C@]3(C)CC[C@H]2C1(C)C
